According to ChEMBL document CHEMBL2150877, “γ-Secretase modulators as potential disease modifying anti-Alzheimer's drugs” (J Med Chem, 2011):

What was measured:
[1] = Inhibition of gamma secretase assessed as reduction in Abeta42 production
Mus musculus [2] = assay: Antialzheimer activity in YAC transgenic mouse model assessed as reduction in brain Abeta42 levels at 10 mg/kg, po measured after 7 hrs; type: functional; set-up: scale not given: the % may be the effect or the level left
Mus musculus [3] = assay: Antialzheimer activity in transgenic Alzheimer disease mouse model assessed as increase in recognition index at 125 ppm dosed for 10 months by object recognition memory test (reference value: 48.9%); type: functional
Mus musculus [4] = assay: Brain penetration in mouse assessed as brain/plasma ratio at 100 or 300 mg/kg/day for 4 to 5 days; type: ADME, organism-based; details: in vivo
[5] = Drug level in mouse brain dosed for 4 weeks; type: ADME, organism-based; details: read-out: Drug uptake
[6] = Drug level in brain of Tg2576 mouse expressing human APP Swedish mutant at 60 mg/kg/day after 17 weeks; type: ADME, organism-based; details: read-out: Drug uptake
Mus musculus [7] = assay: Antialzheimer activity in transgenic Alzheimer disease mouse model assessed as increase in recognition index at 375 ppm dosed for 10 months by object recognition memory test (reference value: 48.9%); type: functional
Mus musculus [8] = assay: Antialzheimer activity in transgenic hAPP mouse expressing Swedish and London mutations assessed as reduction in plaque area in brain hippocampus dosed for 6 months; type: functional; set-up: scale not given: the % may be the effect or the level left
Mus musculus [9] = assay: Antialzheimer activity in transgenic hAPP mouse expressing Swedish and London mutations assessed as reduction in plaque area in brain cortex dosed for 6 months; type: functional; set-up: scale not given: the % may be the effect or the level left
Mus musculus [10] = assay: Antialzheimer activity in transgenic hAPP mouse expressing Swedish and London mutations assessed as reduction in plaque number in brain cortex dosed for 6 months; type: functional; set-up: scale not given: the % may be the effect or the level left
[11] = Drug level in mouse plasma dosed for 4 weeks; type: ADME, organism-based
Mus musculus [12] = assay: Antialzheimer activity in transgenic hAPP mouse expressing Swedish and London mutations assessed as reduction in plaque number in brain hippocampus dosed for 6 months; type: functional; set-up: scale not given: the % may be the effect or the level left
[13] = Ratio of drug level in brain to plasma in rat; type: ADME, cell-free; details: read-out: BPR
Rattus norvegicus = species: Rattus norvegicus; assay: Antialzheimer activity in non-transgenic rat assessed as reduction in brain Abeta42 levels; type: functional; set-up: scale not given: the % may be the effect or the level left
Brain = assay: Drug level in rat brain brain; type: ADME, tissue-based; details: in vivo, read-out: Drug uptake
[14] = Inhibition of gamma secretase assessed as reduction in Abeta42 production at 3 uM
[15] = Drug level in non-transgenic mouse plasma 30 mg/kg, po measured after 4 hrs; type: ADME, organism-based; set-up: dose 30 mg/kg, route oral
Mus musculus [16] = assay: Antialzheimer activity in non-transgenic mouse assessed as reduction in brain Abeta42 levels at 30 mg/kg, po measured after 4 hrs; type: functional; set-up: scale not given: the % may be the effect or the level left
[17] = Drug level in non-transgenic mouse brain 30 mg/kg, po measured after 4 hrs; type: ADME, organism-based; set-up: dose 30 mg/kg, route oral; details: read-out: Drug uptake
Mus musculus [18] = assay: Antialzheimer activity in transgenic Alzheimer disease APPLd2 mouse model assessed as reduction in brain Abeta42 levels at 50 mg/kg, po; type: functional; set-up: scale not given: the % may be the effect or the level left
Mus musculus [19] = assay: Antialzheimer activity in Tg2576 mouse assessed as reduction in plaque load in brain cortex at 50 mg/kg/day, po (reference value: 2.8%); type: functional; set-up: scale not given: the % may be the effect or the level left
[20] = Inhibition of gamma secretase in Tg2576 mouse mixed brain cultures assessed as reduction in Abeta42 production
[21] = Ratio of drug level in brain to plasma in C57/BL/6 mouse at 50 mg/kg, po dosed once daily; type: ADME, organism-based; set-up: dose 50 mg/kg, route oral; details: read-out: BPR
[22] = Inhibition of gamma secretase in Tg2576 mouse mixed brain cultures assessed as increase in Abeta38 production
[23] = Oral bioavailability in po dosed mouse; type: ADME, organism-based; details: in vivo
[24] = Inhibition of gamma secretase in Tg2576 mouse mixed brain cultures assessed as reduction in Abeta40 production
[25] = Clearance in iv dosed mouse; type: ADME, organism-based; details: in vivo
[26] = Drug level in C57/BL/6 mouse brain at 50 mg/kg, po dosed once daily; type: ADME, organism-based; set-up: dose 50 mg/kg, route oral; details: read-out: Drug uptake
Mus musculus [27] = assay: Antialzheimer activity in Tg2576 mouse assessed as reduction in plaque load in brain hippocampus at 50 mg/kg/day, po (reference value: 0.5%); type: functional; set-up: scale not given: the % may be the effect or the level left
[28] = Plasma concentration in C57/BL/6 mouse at 50 mg/kg, po dosed once daily; type: ADME, organism-based; set-up: dose 50 mg/kg, route oral
[29] = Tmax in po dosed mouse; type: ADME, organism-based; details: in vivo
Plasma = assay: Plasma concentration in Tg2576 mouse at 50 mg/kg/day, po; type: ADME, organism-based; set-up: route oral; details: in vivo
[30] = Half life in po dosed mouse; type: ADME, organism-based; details: in vivo
[31] = Drug level in brain of rat at 10 mg/kg after 6 hrs; type: ADME, organism-based; set-up: dose 10 mg/kg; details: read-out: Drug uptake
[32] = Selectivity index, ratio of IC50 for gamma secretase-mediated Abeta42 production to IC50 for […] gamma secretase-mediated Abeta40 production
Mus musculus [33] = assay: Antialzheimer activity in po dosed YAC transgenic mouse model assessed as plasma compound concentration causing reduction in brain Abeta42 levels; type: functional, organism-based
Mus musculus [34] = assay: Antialzheimer activity in po dosed YAC transgenic mouse model assessed as reduction in Abeta42 levels; type: functional
Mus musculus [35] = assay: Antialzheimer activity in po dosed YAC transgenic mouse model assessed as brain compound concentration causing reduction in brain Abeta42 levels; type: functional, organism-based
[36] = Drug level in mouse brain at 5 mg/kg, po after 2 hrs; type: ADME, organism-based; set-up: dose 5 mg/kg, route oral; details: read-out: Drug uptake
[37] = Ratio of drug level in brain to plasma in mouse at 5 mg/kg, po after 2 hrs; type: ADME, organism-based; set-up: dose 5 mg/kg, route oral; details: read-out: BPR
[38] = Inhibition of gamma secretase expressed in CHO cells assessed as reduction in Abeta42 production; type: cell-based
Mus musculus [39] = assay: Antialzheimer activity in Tg2576 mouse assessed as reduction in Abeta42 production at 25 mg/kg, po after 18 hrs; type: functional; set-up: scale not given: the % may be the effect or the level left
[40] = Inhibition of gamma secretase expressed in CHO cells assessed as reduction in Abeta40 and Abeta 42 production; type: cell-based
[41] = Drug level in mouse brain after 6 hrs; type: ADME, tissue-based; details: read-out: Drug uptake
Mus musculus [42] = assay: Antialzheimer activity in TASTPM transgenic mouse model assessed as increase in brain Abeta38 levels at 100 mg/kg measured after 3 to 15 hrs; type: functional
Mus musculus [43] = assay: Antialzheimer activity in TASTPM transgenic mouse model assessed as reduction in brain Abeta42 levels at 100 mg/kg measured after 3 to 15 hrs; type: functional; set-up: scale not given: the % may be the effect or the level left
[44] = Drug level in mouse plasma after 6 hrs; type: ADME, cell-free

## C[Si](C)(C)CC[C@H](CCC(F)(F)F)N1CC[C@@H](CC(=O)O)C(F)(F)[C@H]1c1ccc(C(F)(F)F)cc1
[1]
  IC50: 230 nM
Mus musculus [2]
  Activity: 64%

## O=C(O)C1(c2ccc(-c3ccc(Cl)c(Cl)c3)c(F)c2)CC1
Mus musculus [3]
  Activity: 62.2%
Mus musculus [4]
  permeability: 5%
[5]
  concentration at 672 h: 20 µM
[6]
  concentration at 2856 h: 6.4 µM
Mus musculus [7]
  Activity: 64.1%
Mus musculus [8]
  Activity: 42%
[1]
  IC50: 40000 nM
Mus musculus [9]
  Activity: 32%
Mus musculus [10]
  Activity: 28%
[11]
  concentration at 672 h: 580 µM
Mus musculus [12]
  Activity: 34%

## CC(C)CC(C(=O)O)c1ccc(-c2ccc(C(F)(F)F)cc2)c(OCC2CC2)c1 (stereo unspecified)
[13]
  Kp: 0.11
[1]
  IC50: 140 nM
Rattus norvegicus
  Activity: 20%
Brain
  concentration: 10 µM

## CC(C)CC(C(=O)O)c1cc(Nc2cc(F)cc(F)c2)cc(-c2ccc(C(F)(F)F)cc2)c1 (stereo unspecified)
[14]
  inhibition: 73%

## CC(C)CC(C(=O)O)c1cc(OCc2ccc(F)cc2C(F)(F)F)cc(-c2ccc(C(F)(F)F)cc2)c1 (stereo unspecified)
[15]
  concentration at 4 h: 18.4 µM
Mus musculus [16]
  Activity: 25%
[17]
  concentration at 4 h: 5.1 µM
[1]
  IC50: 316 nM

## CC(C)CC(C(=O)O)c1ccc(OCC2CC2)c(-c2ccc(C(F)(F)F)cc2)c1 (stereo unspecified)
[13]
  Kp: 0.08
[1]
  IC50: 240 nM
Brain
  concentration: 2.7 µM

## C[C@H](C(=O)O)c1ccc(-c2ccccc2)c(F)c1 [ESFLURBIPROFEN]
Mus musculus [18]
  Activity: 17%

## CCc1cc(Nc2nc(-c3ccc(-n4cnc(C)c4)c(F)c3)cs2)c(C)cc1C
Mus musculus [19]
  Activity: 7.6%
[20]
  IC50: 29 nM
[21]
  Kp: 0.93
[22]
  EC50: 170 nM
[23]
  bioavailability: 49%
[24]
  IC50: 90 nM
[25]
  clearance: 3.33 mL/min/kg
[26]
  AUC: 65000 ng·h/mL
Mus musculus [27]
  Activity: 1.9%
[28]
  AUC: 70000 ng·h/mL
[29]
  Tmax: 3 h
Plasma
  concentration: 4 µM
[30]
  half-life: 2 h

## C[C@@H](C(=O)O)c1ccc(-c2ccccc2)c(F)c1 [TARENFLURBIL]
[5]
  concentration at 672 h: 1.3 µM
[1]
  IC50: 268000 nM
Mus musculus [18]
  Activity: 36%
[11]
  concentration at 672 h: 74 µM

## O=C(O)C1(c2ccc(-c3ccc(C(F)(F)F)cc3)c(F)c2)CC1
Mus musculus [4]
  permeability: 10%
[1]
  IC50: 92000 nM

## COc1cc(Nc2cc(C#N)cn(Cc3ccc(F)cc3)c2=O)ccc1-n1cnc(C)c1
[31]
  concentration at 6 h: 391 ng/g
[32]
  Ratio IC50: 126
[1]
  IC50: 159 nM

## COc1cc(Nc2cc(C#N)cn([C@@H](C)c3ccc(F)cc3)c2=O)ccc1-n1cnc(C)c1
[31]
  concentration at 6 h: 917 ng/g
[32]
  Ratio IC50: 135
[1]
  IC50: 148 nM

## CC(C)(C)CC[C@H](CCC(F)(F)F)N1CCC(F)(F)[C@H](CC(=O)O)[C@H]1c1ccc(C(F)(F)F)cc1
[1]
  IC50: 600 nM
Mus musculus [33]
  EC50: 3700 nM
Mus musculus [34]
  ED50: 5 mg/kg
Mus musculus [35]
  EC50: 1000 nM
Mus musculus [2]
  Activity: 84%

## CC(C)CC[C@H](c1ncc(C(F)(F)F)cn1)N1CC[C@@H](CC(=O)O)C[C@H]1c1ccc(C(F)(F)F)cc1
[36]
  concentration at 2 h: 4.2 µM
[1]
  IC50: 320 nM
[37]
  Kp at 2 h: 0.74

## CC(C)=CCCC(C)(O)[C@H]1CC[C@]2(C)[C@@H]1[C@H](O)C[C@@H]1[C@@]3(C)CC[C@H](O[C@@H]4O[C@H](CO)[C@@H](O)[C@H](O)[C@H]4O[C@@H]4O[C@H](CO)[C@@H](O)[C@H](O)[C@H]4O)C(C)(C)[C@@H]3CC[C@]12C (stereo partly specified)
[38]
  IC50: 25000 nM
Mus musculus [39]
  Activity: 20%
[40]
  IC50: 200000 nM

## CC(C)CC[C@H](c1ccc(C(F)(F)F)nc1)N1CC[C@@H](CC(=O)O)C[C@H]1c1ccc(C(F)(F)F)cc1
[41]
  concentration at 6 h: 54.7 µM
Mus musculus [42]
  Activity: 30%
Mus musculus [43]
  Activity: 20%
[1]
  IC50: 800 nM
[44]
  concentration at 6 h: 32.9 µM

## CC(C)CC(C(=O)O)c1cc(OCc2cc(F)cc(F)c2)cc(-c2ccc(Cl)c(C(F)(F)F)c2)c1 (stereo unspecified)
[15]
  concentration at 4 h: 24.5 µM
Mus musculus [16]
  Activity: 42%
[17]
  concentration at 4 h: 6.5 µM
[1]
  IC50: 190 nM
